From patent US20110086853A1, “Therapeutic Compounds” (priority 2009, published 2011)

Target: T1, Human CB1 receptor (Homo sapiens, UniProt P21554)
T1 construct: purchased Receptor Biology
Experiment: hCB1 GTPγS binding
Assay type: biochemical
Conditions: maximal stimulated binding determined with 10 μM Win 55,212-2
Description: hCB1 and hCB2 GTPγS Binding
Human CB1 receptor from Receptor Biology (hCB1) or human CB2 receptor membranes (BioSignal) are thawed at 37° C., passed 3 times through a 25-gauge blunt-end needle and diluted in the GTPγS binding buffer (50 mM Hepes, 20 mM NaOH, 100 mM NaCl, 1 mM EDTA, 5 mM MgCl2, pH 7.4, 0.1% BSA). The EC50 and Emax of the compounds of the invention are evaluated from 10-point dose-response curves done in 300 μl with the appropriate amount of membrane protein and 100000-130000 dpm of GTPg^35S per well (0.11-0.14 nM). The basal and maximal stimulated binding is determined in absence and presence of 1 μM (hCB2) or 10 μM (hCB1) Win 55, 212-2 respectively. The membranes are pre-incubated for 5 minutes with 56.25 μM (hCB2) or 112.5 μM (hCB1) GDP prior to distribution in plates (15 μM (hCB2) or 30 μM (hCB1) GDP final). The plates are vortexed and incubated for 60 minutes at room temperature, filtered on Unifilters GF/B (presoaked in water) with the Tomtec or Packard harvester using 3 ml of wash buffer (50 mM Tris, 5 mM MgCl2, 50 mM NaCl, pH 7.0). The filters are dried for 1 hour at 55° C. The radioactivity (cpm) is counted in a TopCount (Packard) after adding 65 μl/well of MS-20 scintillation liquid. Antagonist reversal studies are done in the same way except that (a) an agonist dose-response curve is done in the presence of a constant concentration of antagonist, or (b) an antagonist dose-response curve is done in the presence of a constant concentration of agonist.

T1 sequence (P21554 whole entry): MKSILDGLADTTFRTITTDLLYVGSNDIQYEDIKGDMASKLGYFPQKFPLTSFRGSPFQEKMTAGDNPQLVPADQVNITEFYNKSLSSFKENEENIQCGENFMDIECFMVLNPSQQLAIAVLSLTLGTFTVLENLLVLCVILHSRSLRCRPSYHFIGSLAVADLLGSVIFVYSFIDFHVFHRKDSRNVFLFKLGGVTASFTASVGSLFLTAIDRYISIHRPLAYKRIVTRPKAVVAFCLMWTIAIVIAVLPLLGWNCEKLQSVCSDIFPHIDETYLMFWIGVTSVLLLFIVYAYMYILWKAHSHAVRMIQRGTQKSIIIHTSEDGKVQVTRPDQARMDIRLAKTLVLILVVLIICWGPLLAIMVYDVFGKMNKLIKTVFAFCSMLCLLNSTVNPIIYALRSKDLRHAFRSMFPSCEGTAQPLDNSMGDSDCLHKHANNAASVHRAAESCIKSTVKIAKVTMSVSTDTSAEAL

Row | Compound | Emax
1 | CC(C)(C)c1nc2cc(S(=O)(=O)n3cc(C(=O)NC4CC4)cn3)ccc2n1CC1CCC(F)(F)CC1 [1-({2-tert-Butyl-1-[(4,4-difluorocyclohexyl)methyl]-1H-benzimidazol-5-yl}sulfonyl)-N-cyclopropyl-1H-pyrazole-4-carboxamide] | 122%
2 | CC(C)NC(=O)c1cnn(S(=O)(=O)c2ccc3c(c2)nc(C(C)(C)C)n3CC2CCC(F)(F)CC2)c1 [1-({2-tert-Butyl-1-[(4,4-difluorocyclohexyl)methyl]-1H-benzimidazol-5-yl}sulfonyl)-N-isopropyl-1H-pyrazole-4-carboxamide] | 125%
3 | CNC(=O)c1cnn(S(=O)(=O)c2ccc3c(c2)nc(C(C)(C)C)n3CC2CCC(F)(F)CC2)c1 [1-({2-tert-Butyl-1-[(4,4-difluorocyclohexyl)methyl]-1H-benzimidazol-5-yl}sulfonyl)-N-methyl-1H-pyrazole-4-carboxamide] | 118%
4 | CC(C)(C)c1nc2cc(S(=O)(=O)n3ccc(C(=O)NC4CC4)c3)ccc2n1CC1CCOCC1 [1-{[2-tert-Butyl-1-(tetrahydro-2H-pyran-4-ylmethyl)-1H-benzimidazol-5-yl]sulfonyl}-N-cyclopropyl-1H-pyrrole-3-carboxamide] | 142%
5 | CCNC(=O)c1ccn(S(=O)(=O)c2ccc3c(c2)nc(C(C)(C)C)n3CC2CCOCC2)c1 [1-{[2-tert-butyl-1-(tetrahydro-2H-pyran-4-ylmethyl)-1H-benzimidazol-5-yl]sulfonyl}-N-ethyl-1H-pyrrole-3-carboxamide] | 138%
6 | CC(C)(C)c1nc2cc(S(=O)(=O)N3CCOC(C(=O)NC4CC4)C3)ccc2n1CC1CCC(F)(F)CC1 (centres unmarked) [4-({2-tert-Butyl-1-[(4,4-difluorocyclohexyl)methyl]-1H-benzimidazol-5-yl}sulfonyl)-N-cyclopropylmorpholine-2-carboxamide] | 120%
7 | CCNC(=O)[C@@H]1CN(S(=O)(=O)c2ccc3c(c2)nc(C(C)(C)C)n3CC2CCC(F)(F)CC2)CCO1 [(2S)-4-((2-tert-butyl-1-[(4,4-difluorocyclohexyl)methyl]-1H-benzimidazol-5-yl}sulfonyl)-N-ethylmorpholine-2-carboxamide] | 156%
8 | CC(C)(C)c1nc2cc(S(=O)(=O)N3CCC[C@H](C(=O)NC4CC4)C3)ccc2n1CC1CCC(F)(F)CC1 [(3S)-1-({2-tert-Butyl-1-[(4,4-difluorocyclohexyl)methyl]-1H-benzimidazol-5-yl}sulfonyl)-N-cyclopropylpiperidine-3-carboxamide] | 136%
9 | CCCNC(=O)[C@H]1CCCN(S(=O)(=O)c2ccc3c(c2)nc(C(C)(C)C)n3CC2CCC(F)(F)CC2)C1 [(3S)-1-({2-tert-Butyl-1-[(4,4-difluorocyclohexyl)methyl]-1H-benzimidazol-5-yl}sulfonyl)-N-propylpiperidine-3-carboxamide] | 134%
10 | CCNC(=O)c1cnn(S(=O)(=O)c2ccc3c(c2)nc(C(C)(C)C)n3CC2CCOCC2)c1 [Example 27, 1-{[2-tert-Butyl-1-(tetrahydro-2H-pyran-4-ylmethyl)-1H-benzimidazol-5-yl]sulfonyl}-N-ethyl-1H-pyrazole-4-carboxamide] | 127%
11 | CC(F)(F)c1nc2cc(S(=O)(=O)n3ccc(C(=O)NC4CC4)c3)ccc2n1CC1CCOCC1 [N-Cyclopropyl-1-{[2-(1,1-difluoroethyl)-1-(tetrahydro-2H-pyran-4-ylmethyl)-1H-benzimidazol-5-yl]sulfonyl}-1H-pyrrole-3-carboxamide] | 119%
